# In US11208412B2 (DAEGU-GYEONGBUK MEDICAL INNOVATION FOUNDATION, priority 2017, dated 2021):
# Columns and labels:
# Assay in all cases: Kinase selectivity, DiscoverX scanMAX Kinase assay panel (% control)
# Assay type in all cases: binding
# [1] = target: T1, kinases of the scanMAX Kinase assay panel (Homo sapiens, UniProt P00519, E255K); settings: ABL1(E255K)-phosphorylated; 1 uM
# T1 construct: purchased DiscoverX Co. (contract measurement) scanMAX Kinase assay panel
# Summary of the method: (§1)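 Read-out is % control, normalised so a positive-control compound sits at 0% and DMSO at 100%: (test − positive)/(negative − positive)×100. Each kinase received the compound at 1 uM in DMSO. A value below 35% counts as activity.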
# [2] = target: T2, kinases of the scanMAX Kinase assay panel (Homo sapiens, UniProt P08581); settings: MET; 1 uM
# T2 construct: purchased DiscoverX Co. (contract measurement) scanMAX Kinase assay panel
# Summary of the method: as §1
# [3] = target: T3, kinases of the scanMAX Kinase assay panel (Homo sapiens, UniProt P08922); settings: kinase ROS1; 1 uM in DMSO
# T3 construct: purchased DiscoverX Co. (contract measurement) scanMAX Kinase assay panel
# Summary of the method: as §1
# [4] = target: T4, kinases of the scanMAX Kinase assay panel (Homo sapiens, UniProt P42336, E545K); settings: PIK3CA(E545K); 1 uM
# T4 construct: purchased DiscoverX Co. (contract measurement) scanMAX Kinase assay panel
# Summary of the method: as §1
# [5] = target: T5, kinases of the scanMAX Kinase assay panel (Homo sapiens, UniProt P51451); settings: BLK; 1 uM
# T5 construct: purchased DiscoverX Co. (contract measurement) scanMAX Kinase assay panel
# Summary of the method: as §1
# [6] = target: T6, kinases of the scanMAX Kinase assay panel (Homo sapiens, UniProt P51617); settings: IRAK1; 1 uM
# T6 construct: purchased DiscoverX Co. (contract measurement) scanMAX Kinase assay panel
# Summary of the method: as §1
# [7] = target: T7, kinases of the scanMAX Kinase assay panel (Homo sapiens, UniProt P51955); settings: NEK2; 1 uM
# T7 construct: purchased DiscoverX Co. (contract measurement) scanMAX Kinase assay panel
# T7 sequence (P51955 1-445): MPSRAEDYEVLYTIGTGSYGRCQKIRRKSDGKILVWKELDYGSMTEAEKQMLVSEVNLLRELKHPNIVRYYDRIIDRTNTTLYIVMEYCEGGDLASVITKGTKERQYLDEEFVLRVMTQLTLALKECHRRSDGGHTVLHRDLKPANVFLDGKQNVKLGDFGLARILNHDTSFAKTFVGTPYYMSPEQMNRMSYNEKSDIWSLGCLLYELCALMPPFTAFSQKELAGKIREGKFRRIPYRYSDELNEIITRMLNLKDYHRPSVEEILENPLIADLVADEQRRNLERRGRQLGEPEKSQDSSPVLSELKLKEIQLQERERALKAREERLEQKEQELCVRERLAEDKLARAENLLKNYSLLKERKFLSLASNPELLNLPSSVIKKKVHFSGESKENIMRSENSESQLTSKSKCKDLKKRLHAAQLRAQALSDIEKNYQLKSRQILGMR
# Summary of the method: as §1
# [8] = target: T8, kinases of the scanMAX Kinase assay panel (Homo sapiens, UniProt Q00526); settings: CDK3; 1 uM
# T8 construct: purchased DiscoverX Co. (contract measurement) scanMAX Kinase assay panel
# Summary of the method: as §1
# [9] = target: T9, kinases of the scanMAX Kinase assay panel (Homo sapiens, UniProt Q04771); settings: ACVR1; 1 uM
# T9 construct: purchased DiscoverX Co. (contract measurement) scanMAX Kinase assay panel
# T9 sequence (Q04771 21-509): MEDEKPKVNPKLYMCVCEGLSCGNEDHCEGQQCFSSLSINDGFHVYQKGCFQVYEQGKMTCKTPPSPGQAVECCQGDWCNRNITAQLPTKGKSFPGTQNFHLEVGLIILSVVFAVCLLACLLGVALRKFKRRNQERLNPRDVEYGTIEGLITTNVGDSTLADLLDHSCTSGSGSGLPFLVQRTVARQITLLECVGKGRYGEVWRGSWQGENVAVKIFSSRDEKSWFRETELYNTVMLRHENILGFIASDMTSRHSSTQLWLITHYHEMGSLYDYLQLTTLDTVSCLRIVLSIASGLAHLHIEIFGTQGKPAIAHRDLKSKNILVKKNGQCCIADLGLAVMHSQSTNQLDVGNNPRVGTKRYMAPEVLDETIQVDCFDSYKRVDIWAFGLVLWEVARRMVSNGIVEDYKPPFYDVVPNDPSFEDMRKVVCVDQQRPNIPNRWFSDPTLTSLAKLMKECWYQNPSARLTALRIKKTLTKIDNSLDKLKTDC
# Summary of the method: as §1
# [10] = target: T10, kinases of the scanMAX Kinase assay panel (Homo sapiens, UniProt Q6P3R8); settings: NEK5; 1 uM
# T10 construct: purchased DiscoverX Co. (contract measurement) scanMAX Kinase assay panel
# T10 sequence (Q6P3R8 1-708): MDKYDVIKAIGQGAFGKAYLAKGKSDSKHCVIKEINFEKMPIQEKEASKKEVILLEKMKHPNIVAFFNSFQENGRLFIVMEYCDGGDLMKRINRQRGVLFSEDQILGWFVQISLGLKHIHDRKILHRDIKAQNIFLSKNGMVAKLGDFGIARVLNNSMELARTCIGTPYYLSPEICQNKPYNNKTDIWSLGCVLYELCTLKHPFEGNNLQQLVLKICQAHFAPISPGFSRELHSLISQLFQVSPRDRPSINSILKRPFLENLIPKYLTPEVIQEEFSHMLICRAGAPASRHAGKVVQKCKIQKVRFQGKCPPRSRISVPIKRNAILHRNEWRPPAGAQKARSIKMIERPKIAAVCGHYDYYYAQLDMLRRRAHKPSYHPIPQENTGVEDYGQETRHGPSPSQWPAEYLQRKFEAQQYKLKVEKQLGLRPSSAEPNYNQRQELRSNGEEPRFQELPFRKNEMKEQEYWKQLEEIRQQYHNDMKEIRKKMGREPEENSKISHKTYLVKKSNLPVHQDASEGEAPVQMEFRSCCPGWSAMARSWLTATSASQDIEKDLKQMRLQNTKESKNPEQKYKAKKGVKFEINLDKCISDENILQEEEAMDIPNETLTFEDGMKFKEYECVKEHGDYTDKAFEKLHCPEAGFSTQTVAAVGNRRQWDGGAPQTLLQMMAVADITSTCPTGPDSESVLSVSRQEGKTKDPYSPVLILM
# Summary of the method: as §1
# [11] = target: T11, kinases of the scanMAX Kinase assay panel (Homo sapiens, UniProt Q9HBH9); settings: MKNK2; 1 uM
# T11 construct: purchased DiscoverX Co. (contract measurement) scanMAX Kinase assay panel
# Summary of the method: as §1
# T6 sequence (P51617 whole entry): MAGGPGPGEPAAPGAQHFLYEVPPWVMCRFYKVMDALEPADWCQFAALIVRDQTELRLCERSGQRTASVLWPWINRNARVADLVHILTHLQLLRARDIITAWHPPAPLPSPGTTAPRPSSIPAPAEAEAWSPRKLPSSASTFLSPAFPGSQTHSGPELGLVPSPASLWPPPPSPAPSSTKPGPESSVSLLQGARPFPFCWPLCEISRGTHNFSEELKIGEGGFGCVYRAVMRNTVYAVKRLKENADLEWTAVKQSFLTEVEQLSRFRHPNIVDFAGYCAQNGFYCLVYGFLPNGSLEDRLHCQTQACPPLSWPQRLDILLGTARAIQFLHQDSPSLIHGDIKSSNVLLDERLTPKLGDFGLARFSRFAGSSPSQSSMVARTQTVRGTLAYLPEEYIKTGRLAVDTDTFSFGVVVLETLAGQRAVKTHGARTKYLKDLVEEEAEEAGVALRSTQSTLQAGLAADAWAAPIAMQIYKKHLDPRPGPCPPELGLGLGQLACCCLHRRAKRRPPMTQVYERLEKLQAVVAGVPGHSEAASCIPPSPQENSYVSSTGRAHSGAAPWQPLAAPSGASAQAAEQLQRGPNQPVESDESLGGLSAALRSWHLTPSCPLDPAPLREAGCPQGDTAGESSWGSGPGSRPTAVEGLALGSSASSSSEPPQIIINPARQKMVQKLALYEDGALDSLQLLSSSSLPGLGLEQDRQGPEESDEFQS
# T8 sequence (Q00526 whole entry): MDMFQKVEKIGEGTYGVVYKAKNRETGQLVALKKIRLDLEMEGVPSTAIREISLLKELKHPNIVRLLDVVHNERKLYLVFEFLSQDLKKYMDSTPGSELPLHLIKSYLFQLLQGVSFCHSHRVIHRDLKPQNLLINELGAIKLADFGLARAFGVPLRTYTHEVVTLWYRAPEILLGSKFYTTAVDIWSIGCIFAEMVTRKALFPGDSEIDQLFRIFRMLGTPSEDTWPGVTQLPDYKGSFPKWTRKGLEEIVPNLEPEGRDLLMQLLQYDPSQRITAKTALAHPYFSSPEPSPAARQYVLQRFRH
# T1 sequence (P00519 whole entry E255K): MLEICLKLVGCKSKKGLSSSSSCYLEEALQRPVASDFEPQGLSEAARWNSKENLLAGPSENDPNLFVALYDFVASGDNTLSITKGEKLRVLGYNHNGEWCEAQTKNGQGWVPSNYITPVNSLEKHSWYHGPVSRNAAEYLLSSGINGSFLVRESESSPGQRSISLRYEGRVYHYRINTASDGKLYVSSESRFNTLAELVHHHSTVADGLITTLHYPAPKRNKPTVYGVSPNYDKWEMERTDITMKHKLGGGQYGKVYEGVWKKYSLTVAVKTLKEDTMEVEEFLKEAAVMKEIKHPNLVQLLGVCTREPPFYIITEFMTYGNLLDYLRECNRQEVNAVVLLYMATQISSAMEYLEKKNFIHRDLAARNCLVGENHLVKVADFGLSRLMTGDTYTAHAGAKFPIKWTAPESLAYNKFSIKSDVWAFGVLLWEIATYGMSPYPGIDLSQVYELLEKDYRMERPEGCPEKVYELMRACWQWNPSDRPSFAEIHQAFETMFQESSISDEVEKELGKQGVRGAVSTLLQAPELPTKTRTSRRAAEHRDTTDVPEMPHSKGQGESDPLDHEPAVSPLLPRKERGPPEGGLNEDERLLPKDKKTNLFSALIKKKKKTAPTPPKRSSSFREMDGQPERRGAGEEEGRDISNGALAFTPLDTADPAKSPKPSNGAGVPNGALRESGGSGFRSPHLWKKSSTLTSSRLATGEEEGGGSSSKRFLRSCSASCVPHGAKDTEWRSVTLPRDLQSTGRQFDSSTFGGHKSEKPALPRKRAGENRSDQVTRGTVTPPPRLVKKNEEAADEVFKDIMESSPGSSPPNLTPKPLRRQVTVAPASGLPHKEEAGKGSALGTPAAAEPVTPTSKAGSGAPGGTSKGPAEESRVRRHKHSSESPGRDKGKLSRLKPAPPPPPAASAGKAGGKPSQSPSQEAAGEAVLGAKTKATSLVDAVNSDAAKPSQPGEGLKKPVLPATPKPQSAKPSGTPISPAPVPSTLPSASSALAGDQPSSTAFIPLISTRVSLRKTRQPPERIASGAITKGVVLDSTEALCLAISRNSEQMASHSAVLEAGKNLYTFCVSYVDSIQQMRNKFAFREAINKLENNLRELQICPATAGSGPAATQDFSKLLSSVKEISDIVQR
# T3 sequence (P08922 28-2347): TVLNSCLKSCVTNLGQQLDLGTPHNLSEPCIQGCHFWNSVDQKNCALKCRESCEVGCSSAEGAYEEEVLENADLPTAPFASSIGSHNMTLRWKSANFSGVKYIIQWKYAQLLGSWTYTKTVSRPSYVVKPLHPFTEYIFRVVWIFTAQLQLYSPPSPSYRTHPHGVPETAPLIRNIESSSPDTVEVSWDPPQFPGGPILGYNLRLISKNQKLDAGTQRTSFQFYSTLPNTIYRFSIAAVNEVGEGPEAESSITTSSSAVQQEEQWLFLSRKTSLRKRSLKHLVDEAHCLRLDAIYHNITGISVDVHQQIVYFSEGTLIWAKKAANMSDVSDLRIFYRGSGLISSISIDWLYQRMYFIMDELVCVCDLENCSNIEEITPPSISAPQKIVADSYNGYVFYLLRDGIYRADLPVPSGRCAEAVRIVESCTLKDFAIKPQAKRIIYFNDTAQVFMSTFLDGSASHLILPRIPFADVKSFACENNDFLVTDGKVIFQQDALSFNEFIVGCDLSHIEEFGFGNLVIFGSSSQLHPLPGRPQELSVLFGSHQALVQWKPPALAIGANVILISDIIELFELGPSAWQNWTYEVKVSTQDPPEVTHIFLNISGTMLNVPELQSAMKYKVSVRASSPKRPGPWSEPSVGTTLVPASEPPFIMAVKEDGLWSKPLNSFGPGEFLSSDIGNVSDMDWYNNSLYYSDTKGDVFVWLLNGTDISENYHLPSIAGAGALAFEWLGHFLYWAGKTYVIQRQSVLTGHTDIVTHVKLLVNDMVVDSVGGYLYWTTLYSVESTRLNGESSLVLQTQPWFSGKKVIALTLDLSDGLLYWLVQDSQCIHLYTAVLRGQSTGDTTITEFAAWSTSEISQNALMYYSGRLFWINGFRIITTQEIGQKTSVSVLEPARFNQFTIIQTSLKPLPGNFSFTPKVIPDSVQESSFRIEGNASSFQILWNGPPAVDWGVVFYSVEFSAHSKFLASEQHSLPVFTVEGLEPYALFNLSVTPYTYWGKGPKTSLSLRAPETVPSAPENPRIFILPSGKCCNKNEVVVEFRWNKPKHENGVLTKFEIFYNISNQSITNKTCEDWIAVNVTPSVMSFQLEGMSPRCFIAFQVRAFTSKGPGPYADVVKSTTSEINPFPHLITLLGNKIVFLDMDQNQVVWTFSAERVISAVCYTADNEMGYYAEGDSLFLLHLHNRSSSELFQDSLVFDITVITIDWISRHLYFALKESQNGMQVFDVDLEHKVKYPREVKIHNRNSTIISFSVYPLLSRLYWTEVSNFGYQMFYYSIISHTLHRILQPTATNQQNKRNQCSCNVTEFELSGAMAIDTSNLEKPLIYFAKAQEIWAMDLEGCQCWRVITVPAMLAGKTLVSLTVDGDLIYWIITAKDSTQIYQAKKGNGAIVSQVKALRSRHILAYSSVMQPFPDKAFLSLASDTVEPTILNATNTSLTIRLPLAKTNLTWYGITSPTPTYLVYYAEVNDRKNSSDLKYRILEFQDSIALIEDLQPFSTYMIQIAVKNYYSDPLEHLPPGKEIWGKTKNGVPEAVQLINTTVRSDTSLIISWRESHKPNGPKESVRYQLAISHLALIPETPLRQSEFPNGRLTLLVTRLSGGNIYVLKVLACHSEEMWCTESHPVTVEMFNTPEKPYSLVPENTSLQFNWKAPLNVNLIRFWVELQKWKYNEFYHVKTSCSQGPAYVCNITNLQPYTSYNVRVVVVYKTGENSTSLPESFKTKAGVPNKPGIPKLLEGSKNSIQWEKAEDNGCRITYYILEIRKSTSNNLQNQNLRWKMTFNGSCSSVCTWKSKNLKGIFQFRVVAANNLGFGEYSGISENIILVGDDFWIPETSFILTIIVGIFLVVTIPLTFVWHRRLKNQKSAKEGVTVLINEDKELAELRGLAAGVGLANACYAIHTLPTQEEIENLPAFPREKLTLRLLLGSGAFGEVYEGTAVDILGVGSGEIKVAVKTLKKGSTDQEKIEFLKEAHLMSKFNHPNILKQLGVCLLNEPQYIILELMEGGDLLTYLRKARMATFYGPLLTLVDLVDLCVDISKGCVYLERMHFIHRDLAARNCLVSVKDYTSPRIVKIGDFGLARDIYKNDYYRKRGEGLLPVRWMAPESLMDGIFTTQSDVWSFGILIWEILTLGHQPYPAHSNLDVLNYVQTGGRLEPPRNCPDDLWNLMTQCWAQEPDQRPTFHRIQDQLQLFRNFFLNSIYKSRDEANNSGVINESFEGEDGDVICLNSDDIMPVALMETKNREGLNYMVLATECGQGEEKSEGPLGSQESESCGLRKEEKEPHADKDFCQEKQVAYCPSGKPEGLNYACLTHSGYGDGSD
# T11 sequence (Q9HBH9 whole entry): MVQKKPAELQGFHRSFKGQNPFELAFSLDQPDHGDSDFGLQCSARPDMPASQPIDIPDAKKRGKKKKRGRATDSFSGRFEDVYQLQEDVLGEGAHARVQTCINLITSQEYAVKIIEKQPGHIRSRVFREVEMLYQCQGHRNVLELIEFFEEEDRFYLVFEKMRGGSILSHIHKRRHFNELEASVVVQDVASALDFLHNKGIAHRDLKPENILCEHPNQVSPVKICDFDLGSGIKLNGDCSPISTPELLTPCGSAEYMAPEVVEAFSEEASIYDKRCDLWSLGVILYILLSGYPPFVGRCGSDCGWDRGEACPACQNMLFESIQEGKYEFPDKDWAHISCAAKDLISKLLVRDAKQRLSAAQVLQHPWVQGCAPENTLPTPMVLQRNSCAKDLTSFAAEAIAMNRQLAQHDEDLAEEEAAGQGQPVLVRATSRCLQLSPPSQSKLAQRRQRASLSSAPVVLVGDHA
SMILES,remaining binding at 1 µM [1] [%],remaining binding at 1 µM [2] [%],remaining binding at 1 µM [3] [%],remaining binding at 1 µM [4] [%],remaining binding at 1 µM [5] [%],remaining binding at 1 µM [6] [%],remaining binding at 1 µM [7] [%],remaining binding at 1 µM [8] [%],remaining binding at 1 µM [9] [%],remaining binding at 1 µM [10] [%],remaining binding at 1 µM [11] [%]
"CC1(Nc2nc(Nc3cnn([C@H]4CCN(C5COC5)C[C@@H]4F)c3Cl)nc3[nH]cc(C#N)c23)CC1 [Example 52, 2-((5-chloro-1-((3S,4S)-3-fluoro-1-(oxetane-3-yl)piperidine-4-yl)-1H-pyrazole-4-yl)amino)((1-methylcyclopropyl)amino)-7H-pyrrolo[2,3-d]pyrimidine-5-carbonitrile]",0.6,21,23,68,2.2,1.4,70,76,73,99,5.5
"CNc1nc(Nc2ccc(C(=O)N3CCOCC3)cc2OC)nc2[nH]cc(C#N)c12 [Example 1, 2-((2-methoxy-4-(morpholine-4-carbonyl)phenyl)amino)-4-(methylamino)-7H-pyrrolo[2,3-d]pyrimidine-5-carbonitrile]",91,89,56,80,100,75,97,100,97,98,31
"CCNc1nc(Nc2ccc(C(=O)N3CCC(N4CCOCC4)CC3)cc2OC)nc2[nH]cc(C(F)(F)F)c12 [Example 104, (4-((4-(ethylamino)-5-(trifluoromethyl)-7H-pyrrolo[2,3-d]pyrimidine-2-yl)amino)-3-methoxyphenyl)(4-morpholinopiperidine-1-yl)methanone]",100,100,22,90,100,100,74,93,100,95,39
